Experiments:
cocklebur = experiment: Test B pre/postemergence cocklebur; format: in vivo, Xanthium strumarium
Procedure, shortened: (§1)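 Response is a visual 0-to-10 score relative to untreated plants, where 0 means no effect and 10 means complete control, taken twelve to sixteen days after application. Treatments went onto soil at planting and onto foliage of 1- to 4-leaf plants, using a surfactant-containing non-phytotoxic solvent.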

morningglory = experiment: Test B pre/postemergence morningglory; format: in vivo, Ipomoea hederacea
Procedure, shortened: as §1

surinam grass = experiment: Test B pre/postemergence surinam grass; format: in vivo, Brachiaria decumbens
Procedure, shortened: as §1

velvetleaf = experiment: Test B pre/postemergence velvetleaf; format: in vivo, Abutilon theophrasti
Procedure, shortened: as §1

blackgrass = experiment: Test B pre/postemergence blackgrass; format: in vivo, Alopecurus myosuroides
Procedure, shortened: as §1

giant foxtail = experiment: Test B pre/postemergence giant foxtail; format: in vivo, Setaria faberii
Procedure, shortened: as §1

crabgrass = experiment: Test B pre/postemergence crabgrass; format: in vivo, Digitaria sanguinalis
Procedure, shortened: as §1

sugar beet = experiment: Test B pre/postemergence sugar beet; format: in vivo, Beta vulgaris
Procedure, shortened: as §1

soybean = experiment: Test B pre/postemergence soybean; format: in vivo, Glycine max
Procedure, shortened: as §1

rape = experiment: Test B pre/postemergence rape; format: in vivo, Brassica napus
Procedure, shortened: as §1

bedstraw = experiment: Test B pre/postemergence bedstraw; format: in vivo, Galium aparine; details: Preemergence; for Bedstraw plant response rating: scale 0 to 10, 0 is no effect, 10 is complete control
Procedure, shortened: as §1

wild oat = experiment: Test B pre/postemergence wild oat; format: in vivo, Avena fatua
Procedure, shortened: as §1

purple nutsedge = experiment: Test B pre/postemergence purple nutsedge; format: in vivo, Cyperus rotundus
Procedure, shortened: as §1

wheat = experiment: Test B pre/postemergence wheat; format: in vivo, Triticum aestivum
Procedure, shortened: as §1

corn = experiment: Test B pre/postemergence corn; format: in vivo, Zea mays
Procedure, shortened: as §1

pigweed = experiment: Test B pre/postemergence pigweed; format: in vivo, Amaranthus retroflexus
Procedure, shortened: as §1

[1] = Postemergence, Rate 62 g/ha, scale of 0 to 10, 0 is no effect, 10 is complete control
[2] = Postemergence, Rate 125 g/ha, scale 0 to 10, 0 is no effect, 10 is complete control
[3] = Postemergence, Rate 250 g/ha, scale 0 to 10
[4] = Postemergence, Rate 500 g/ha, scale 0 to 10, 0 is no effect, 10 is complete control
[5] = Preemergence, Rate 62 g/ha, scale of 0 to 10 where 0 is no effect and 10 is complete control
[6] = Preemergence, Rate 125 g/ha, scale 0 to 10, 0 is no effect, 10 is complete control
[7] = Preemergence, Rate 250 g/ha, scale 0 to 10, 0 is no effect, 10 is complete control
[8] = Preemergence, Rate 500 g/ha, scale of 0 to 10 where 0 is no effect and 10 is complete control

CC(Cl)=CCn1c(=O)on(C(=O)N(c2ccc(F)cc2F)C(C)C)c1=O [Compound 514]
Cocklebur plant response rating (cocklebur; [1]): 0 | Cocklebur plant response rating (cocklebur; [2]): 1 | Cocklebur plant response rating (cocklebur; [3]): 3 | Plant response rating, Cocklebur (cocklebur; [4]): 5 | Plant response rating, Cocklebur (cocklebur; [5]): 0 | Cocklebur plant response rating (cocklebur; [6]): 0 | Cocklebur plant response rating (cocklebur; [7]): 0 | Cocklebur plant response rating (cocklebur; [8]): 0 | Morningglory plant response rating (morningglory; [1]): 2 | Morningglory plant response rating (morningglory; [2]): 7 | Plant response rating, Morningglory (morningglory; [4]): 7 | Plant response rating, Morningglory (morningglory; [5]): 0 | Morningglory plant response rating (morningglory; [6]): 0 | Morningglory plant response rating (morningglory; [8]): 0 | B. signalgrass plant response rating (surinam grass; [1]): 0 | B. signalgrass plant response rating (surinam grass; [2]): 0 | B. signalgrass plant response rating (surinam grass; Postemergence, Rate 250 g/ha, scale 0 to 10, 0 no effect, 10 complete control): 3 | Plant response rating, B. signalgrass (surinam grass; [4]): 5 | Plant response rating, B. signalgrass (surinam grass; [5]): 6 | B. signalgrass plant response rating (surinam grass; [6]): 6 | B. signalgrass plant response rating (surinam grass; [7]): 8 | B. signalgrass plant response rating (surinam grass; Preemergence, Rate 500 g/ha, scale 0 to 10, 0 is no effect, 10 is complete control): 10 | Velvetleaf plant response rating (velvetleaf; [1]): 2 | Velvetleaf plant response rating (velvetleaf; [2]): 2 | Plant response rating, Velvetleaf (velvetleaf; [4]): 5 | Plant response rating, Velvetleaf (velvetleaf; [5]): 0 | Velvetleaf plant response rating (velvetleaf; [6]): 0 | Velvetleaf plant response rating (velvetleaf; [8]): 5 | Blackgrass plant response rating (blackgrass; [1]): 0 | Blackgrass plant response rating (blackgrass; [2]): 3 | Blackgrass plant response rating (blackgrass; [3]): 5 | Plant response rating, Blackgrass (blackgrass; [4]): 5 | Plant response rating, Blackgrass (blackgrass; [5]): 2 | Blackgrass plant response rating (blackgrass; [6]): 2 | Blackgrass plant response rating (blackgrass; [7]): 5 | Blackgrass plant response rating (blackgrass; [8]): 7 | Giant foxtail plant response rating (giant foxtail; [1]): 6 | Giant foxtail plant response rating (giant foxtail; [2]): 9 | Plant response rating, Giant foxtail (giant foxtail; [4]): 9 | Plant response rating, Giant foxtail (giant foxtail; [5]): 9 | Giant foxtail plant response rating (giant foxtail; [6]): 10 | Giant foxtail plant response rating (giant foxtail; [8]): 10 | Crabgrass plant response rating (crabgrass; [1]): 7 | Crabgrass plant response rating (crabgrass; [2]): 9 | Crabgrass plant response rating (crabgrass; [3]): 9 | Plant response rating, Crabgrass (crabgrass; [4]): 10 | Plant response rating, Crabgrass (crabgrass; [5]): 5 | Crabgrass plant response rating (crabgrass; [6]): 7 | Crabgrass plant response rating (crabgrass; [8]): 10 | Sugarbeets plant response rating (sugar beet; [1]): 3 | Sugarbeets plant response rating (sugar beet; [2]): 3 | Plant response rating, Sugarbeets (sugar beet; [4]): 5 | Plant response rating, Sugarbeets (sugar beet; [5]): 0 | Sugarbeets plant response rating (sugar beet; [6]): 5 | Sugarbeets plant response rating (sugar beet; [8]): 6 | Soybean plant response rating (soybean; [1]): 6 | Soybean plant response rating (soybean; [2]): 7 | Plant response rating, Soybean (soybean; [4]): 7 | Plant response rating, Soybean (soybean; [5]): 0 | Soybean plant response rating (soybean; [6]): 0 | Soybean plant response rating (soybean; [8]): 0 | Rape plant response rating (rape; [1]): 6 | Rape plant response rating (rape; [2]): 6 | Plant response rating, Rape (rape; [4]): 8 | Plant response rating, Rape (rape; [5]): 0 | Rape plant response rating (rape; [6]): 0 | Rape plant response rating (rape; [8]): 8 | Plant response rating, Bedstraw (bedstraw; Rate 62 g/ha, scale of 0 to 10 where 0 is no effect and 10 is complete control): 0 | Bedstraw plant response rating (bedstraw; Rate 250 g/ha): 0 | Bedstraw plant response rating (bedstraw; Rate 500 g/ha): 0 | Wild oats plant response rating (wild oat; [1]): 0 | Wild oats plant response rating (wild oat; [2]): 0 | Plant response rating, Wild oats (wild oat; [4]): 3 | Plant response rating, Wild oats (wild oat; [5]): 3 | Wild oats plant response rating (wild oat; [6]): 4 | Wild oats plant response rating (wild oat; [8]): 6 | Nutsedge plant response rating (purple nutsedge; [1]): 0 | Nutsedge plant response rating (purple nutsedge; [2]): 0 | Plant response rating, Nutsedge (purple nutsedge; [4]): 0 | Plant response rating, Nutsedge (purple nutsedge; [5]): 0 | Nutsedge plant response rating (purple nutsedge; [8]): 0 | Wheat plant response rating (wheat; [1]): 0 | Wheat plant response rating (wheat; [2]): 0 | Plant response rating, Wheat (wheat; [4]): 0 | Plant response rating, Wheat (wheat; [5]): 0 | Wheat plant response rating (wheat; [6]): 0 | Wheat plant response rating (wheat; [8]): 4 | Corn plant response rating (corn; [1]): 0 | Corn plant response rating (corn; [2]): 0 | Corn plant response rating (corn; [3]): 0 | Plant response rating, Corn (corn; [4]): 5 | Plant response rating, Corn (corn; [5]): 0 | Corn plant response rating (corn; [6]): 0 | Corn plant response rating (corn; [8]): 5 | Redroot pigweed plant response rating (pigweed; [1]): 0 | Redroot pigweed plant response rating (pigweed; [2]): 2 | Plant response rating, Redroot pigweed (pigweed; [4]): 8 | Plant response rating, Redroot pigweed (pigweed; [5]): 7 | Redroot pigweed plant response rating (pigweed; [6]): 8 | Redroot pigweed plant response rating (pigweed; [8]): 10

Reference: patent US6737383B1, “Herbicidal oxadiazolidines” (priority 1999, dated 2004)
